Laboratory results published in patent US9464064B2, “HCV helicase inhibitors and methods of use thereof” (University of Kansas, priority 2011, dated 2016).

Biological target: T1, HCV NS3 helicase NS3h_1b(con1) (Hepatitis C virus genotype 1b, UniProt Q9WMX2)
T1 construct: truncated C-terminally His-tagged NS3 proteins lacking the N-terminal protease, called NS3h; His-tag (C); made in house
Experiment: MBHA screen of NCI mechanistic set library at 20 μM (percent inhibition, compound interference)
Assay type: biochemical
Details: compounds at 20 μM; for Inh. (%) (Inhibition): calculated from Equation 1
Method in brief: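 Molecular beacon-based DNA unwinding assay; compounds screened at 20 μM in triplicate, with DMSO-only negative and 500 nM dT20 positive controls. Fluorescence (ex 643/em 670 nm) was read before and 30 min after adding ATP to 1 mM. Percent inhibition came from the change relative to DMSO controls; interference from pre-ATP fluorescence versus DMSO controls.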

[1] = MBHA with DNA substrate, assay interference calculated with Equation 2
[2] = assay interference calculated with Equation 2 (fluorescence vs DMSO-only controls before ATP)

T1 sequence (Q9WMX2 1192-1657): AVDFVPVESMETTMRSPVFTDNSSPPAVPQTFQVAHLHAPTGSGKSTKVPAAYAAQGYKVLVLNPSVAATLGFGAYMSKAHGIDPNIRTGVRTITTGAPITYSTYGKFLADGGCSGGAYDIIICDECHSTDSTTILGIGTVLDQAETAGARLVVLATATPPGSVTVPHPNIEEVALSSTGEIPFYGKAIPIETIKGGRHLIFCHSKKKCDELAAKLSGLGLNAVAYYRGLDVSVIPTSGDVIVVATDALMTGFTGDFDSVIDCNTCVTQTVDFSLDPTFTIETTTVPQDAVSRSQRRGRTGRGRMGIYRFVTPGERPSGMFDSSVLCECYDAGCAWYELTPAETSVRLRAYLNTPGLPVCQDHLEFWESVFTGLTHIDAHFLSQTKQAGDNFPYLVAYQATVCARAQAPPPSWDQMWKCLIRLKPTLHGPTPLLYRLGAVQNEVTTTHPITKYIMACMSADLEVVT

Structure (SMILES) | Int.* (Ratio) (Interference) [1] | Inh. (%) (Inhibition) (MBHA with DNA substrate) | Inh. (%) (Inhibition) (MBHA with a DNA substrate) | Int.* (Ratio) (Interference) [2]
CO[C@@H]1[C@H](O)C[C@@H](O[C@@H]2C[C@H](Oc3cc4cc5c(c(O)c4c(O)c3C)C(=O)[C@@H](O[C@H]3C[C@@H](O[C@H]4C[C@@H](O[C@H]6C[C@](C)(O)[C@@H](OC(C)=O)[C@H](C)O6)[C@H](O)[C@@H](C)O4)[C@H](O)[C@@H](C)O3)[C@H]([C@H](OC)C(=O)[C@@H](O)[C@@H](C)O)C5)O[C@H](C)[C@@H]2OC(C)=O)O[C@@H]1C [Compound 58514] | 1.04 Ratio | 54.9% | – | –
COC(=O)C1=CC(=O)C(C(=O)Nc2ccc(OC)cc2)C(c2ccccc2)O1 (stereo not drawn) [Compound 634473] | 1.01 Ratio | 4.2% | – | –
CCN(CC)CCNc1ccc(C)c2sc3ccccc3c(=O)c12.Cl [Compound 14574] | 0.85 Ratio | 30.3% | – | –
BrCCC[P+](c1ccccc1)(c1ccccc1)c1ccccc1.[Br-] [Compound 84074] | – | – | −31.4% | 1.11 Ratio
CC[C@](C)(O)C(=O)O[C@H]1C(=O)O[C@@H]2C[C@H]3C(C)=C[C@H](O)[C@@H](O)[C@]3(C)[C@H]3[C@@]4(O)OC[C@]32[C@@H]1[C@@H](C)[C@H]4O [Compound 14975] | – | – | −20.8% | 1.03 Ratio
CC1OC1C(=O)C1(O)C(C)C(O)C23OC2(C(O)c2c(O)cccc2C3=O)C1O (stereo not drawn) [Compound 65380] | – | – | 11.3% | 1.03 Ratio
C[N+](C)(C)CC1CCCC1=O.[I-] (stereo not drawn) [Compound 621889] | 1.08 Ratio | 12.2% | – | –
CC1(C)O[C@@H]2C[C@H]3[C@@H]4C[C@H](F)C5=CC(=O)C=C[C@]5(C)[C@@]4(F)[C@@H](O)C[C@]3(C)[C@]2(C(=O)CO)O1 [Compound 92339] | 1.04 Ratio | −1.6% | – | –
CC1=CC(C)(C)N=C2SC(c3ccc(N)cc3)=NN12 [Compound 640624] | – | – | −4.2% | 1.11 Ratio
COc1nc(C(Cl)(Cl)Cl)c(Cl)c(OC)c1Cl [Compound 338720] | – | – | 7.0% | 0.93 Ratio
O=c1ccc2ccc(CBr)cc2o1 [Compound 99027] | – | – | 10.1% | 0.93 Ratio
Cc1ccc(CC2(OCCN(C)C)CCC(C(C)(C)C)CC2)cc1.O=C(O)/C=C/C(=O)O (stereo not drawn) [Compound 670229] | – | – | −28.8% | 1.17 Ratio
C[CH2][Ge]([CH2]C)([CH2]C)[O]C(=O)CCC(=O)[O][Ge]([CH2]C)([CH2]C)[CH2]C [Compound 653558] | – | – | −3.1% | 0.98 Ratio
COc1cccc2c1C(=O)c1c(O)c3c(c(O)c1C2=O)C[C@@](O)(C(C)=O)C[C@@H]3OC1CC(N(C)C)C(O)C(C)O1.Cl (stereo partly drawn) [Compound 258812] | 0.64 Ratio | 46.4% | – | –
N#CC(=S)Nc1ccc(Cl)c(Cl)c1 [Compound 379531] | – | – | 11.6% | 0.89 Ratio
O=C(CC1(O)C(=O)Nc2c(Cl)cc(Cl)cc21)c1cccc2ccccc12 (stereo not drawn) [Compound 635328] | 0.99 Ratio | 2.5% | – | –
Nc1nc(N)c2cc(Sc3cccc(C(F)(F)F)c3)ccc2n1 [Compound 305782] | 0.87 Ratio | 28.4% | – | –
CC1(C)CC(Nc2ccc(Nc3ccccc3)cc2)CC(C)(C)N1 [Compound 632536] | 0.84 Ratio | 20.7% | – | –
CC1=C(O)c2ccccc2C(=O)C1=O [Compound 11897] | 1.05 Ratio | 2.5% | – | –
O=C(CCc1ccccc1)On1nnc2ccccc2c1=O [Compound 630374] | 0.89 Ratio | 1.3% | – | –
O=C(C=C1SCCS1)/C=C\c1ccc(Cl)cc1 [Compound 648320] | – | – | −32.6% | 1.08 Ratio
COC(=O)c1[nH]c(=S)[nH]c(=O)c1-c1ccc(Cl)cc1 [Compound 635140] | 1.04 Ratio | 4.6% | – | –
CN(C)CCOC1(Cc2ccc(Cl)cc2Cl)CCC(C(C)(C)C)CC1.Cl (stereo not drawn) [Compound 670224] | 0.88 Ratio | 17.9% | – | –
Cc1nc(Cl)c(C)c(Cl)n1 [Compound 40212] | 0.95 Ratio | 1.1% | – | –
CC(C)C(=O)OCN(C)c1nc(N(C)COC(=O)C(C)C)nc(N(C)COC(=O)C(C)C)n1 [Compound 626551] | – | – | −24.9% | 0.90 Ratio
CCOC(=O)Cc1c(C)c2cc(C(=O)c3ccccc3)c(O)cc2oc1=O [Compound 115538] | 1.02 Ratio | −12.6% | – | –
CN(C)CCCCN1CCc2c(n(C)c3ccccc23)C1=O [Compound 658388] | 1.09 Ratio | −18.7% | – | –

Structure (SMILES) | Int.* (Ratio) (Interference) [1] | Inh. (%) (Inhibition) (MBHA with DNA substrate) | Inh. (%) (Inhibition) (MBHA with a DNA substrate) | Int.* (Ratio) (Interference) [2]
CC(=O)[O][Sn]([CH2]c1ccccc1)([CH2]c1ccccc1)[CH2]c1ccccc1 [Compound 164909] | – | – | −20.2% | 1.04 Ratio
COC(=O)c1ccc(=O)c2nc3/c(=C/O)c(O)cc(=O)c3[nH]c12 [Compound 106995] | 0.93 Ratio | −1.1% | – | –
Cc1cc2c(C(C)C)c(O)c(O)c(C=O)c2c(O)c1-c1c(C)cc2c(C(C)C)c(O)c(O)c(C=O)c2c1O [Compound 56817] | 0.90 Ratio | −2.0% | – | –
CC(C)=CCC(OC(=O)C=C(C)C)C1=CC(=O)c2c(O)ccc(O)c2C1=O (stereo not drawn) [Compound 140377] | – | – | 9.4% | 0.93 Ratio
O=C1C=C(Nc2cccnc2)c2ccccc2C1=O [Compound 637729] | – | – | −3.8% | 0.97 Ratio
CCCCCCCC/C=C\CCCCCCCC(=O)O [Compound 9856] | 0.84 Ratio | 12.6% | – | –
O=C1c2ccccc2-c2c1c1ccccc1c(=O)n2Cc1ccccc1 [Compound 337612] | 0.97 Ratio | −16.5% | – | –
O=c1[nH]c(=O)n(C2CCCO2)cc1F (stereo not drawn) [Compound 148958] | 0.99 Ratio | −8.9% | – | –
NC(=S)NN=Cc1ncccc1O [Compound 95678] | 0.98 Ratio | −9.0% | – | –
C1COCCN1.S=C(S)N1CCOCC1 [Compound 4114] | – | – | 7.2% | 1.15 Ratio
N#CC1(C#N)C2C=CC(c3coc4cccc2c34)C1(C#N)C#N (stereo not drawn) [Compound 629301] | 0.91 Ratio | 0.8% | – | –
C[C@@H]1C[C@H]2OC(=O)[C@@]3(C)CCC[C@@](C)([C@@H]23)[C@@]1(O)CCc1ccoc1 [Compound 36693] | 0.76 Ratio | −8.8% | – | –
CN(C)CCOC1(Cc2ccc(F)cc2)CCC(C(C)(C)C)CC1.O=C(O)/C=C/C(=O)O (stereo not drawn) [Compound 670226] | 1.11 Ratio | −2.6% | – | –
CC1C(Oc2c(-c3ccc(O)c(O)c3)oc3c(O)cc(O)cc3c2=O)OC(O)C(O)C1O (stereo not drawn) [Compound 167410] | 0.87 Ratio | −13.8% | – | –
Cc1ccc(N=Nc2c(O)ccc3ccccc23)cc1 [Compound 106296] | – | – | −5.2% | 1.23 Ratio
Nc1nncs1 [Compound 4728] | 1.07 Ratio | 5.9% | – | –
CC(=O)O.Cc1c2cc[n+](CCN3CCCCC3)cc2c(C)c2c1[nH]c1ccc(O)cc12 [Compound 311153] | 0.29 Ratio | 5.0% | – | –
N#CC(=C1C=CC(=NO)C=C1)c1ccc(Cl)cc1 [Compound 405158] | – | – | 10.9% | 1.09 Ratio
CC1(C)NC(=O)N(CCCCCCN2C(=O)NC(C)(C)C2=O)C1=O [Compound 376791] | 1.08 Ratio | −7.3% | – | –
Cc1ccc(S(=O)(=O)NC(=O)NC2=NC(C)(C)N(c3ccc(Cl)c(Cl)c3)C(N)=N2)cc1 [Compound 603624] | – | – | 7.5% | 0.92 Ratio
Cc1ccccc1OCC(COC(=O)Nc1ccccc1)OC(=O)Nc1ccccc1 (stereo not drawn) [Compound 635824] | 0.91 Ratio | 13.5% | – | –
CN1CCN(CN2C(=O)C3C4C=CC(C3C2=O)C2C3C(=O)N(CN5CCN(C)CC5)C(=O)C3C42)CC1 (stereo not drawn) [Compound 361813] | 1.03 Ratio | 21.8% | – | –
CC(=O)SC(SC(C)=O)SC(C)=O [Compound 637833] | 0.80 Ratio | −17.2% | – | –
COc1ccc(S(=O)(=O)N/N=C/C(=O)O)cc1 [Compound 267213] | 1.05 Ratio | 2.9% | – | –
O=C1C2=Nc3ccccc3C(O)N2c2ccccc21 (stereo not drawn) [Compound 292147] | 1.07 Ratio | −2.1% | – | –
CC1(C)CCCC2(C)C3=C(CCC12)C(=O)OC3 (stereo not drawn) [Compound 375294] | 0.87 Ratio | 13.9% | – | –
c1ccc(-c2cccc(-c3ccccn3)n2)nc1 [Compound 3905] | 0.92 Ratio | 5.7% | – | –
